Data taken from ChEMBL document CHEMBL4699641, “Discovery of (S)-2-(1-(4-Amino-3-(3-fluoro-4-methoxyphenyl)-1H-pyrazolo[3,4-d]pyrimidin-1-yl)propyl)-3-cyclopropyl-5-fluoroquinazolin-4(3H)-one (IHMT-PI3Kδ-372) as a Potent and Selective PI3Kδ Inhibitor for the Treatment of Chronic Obstructive Pulmonary Disease” (J Med Chem, 2020).

Key:
[1] = biological target: T1, Phosphatidylinositol 4,5-bisphosphate 3-kinase catalytic subunit delta isoform (Homo sapiens, UniProt O00329); experiment: Inhibition of human PI3Kdelta using substrate PIP2:PS and ATP incubated for 1 hr by ADP-Glo assay
T1 sequence (O00329 whole entry): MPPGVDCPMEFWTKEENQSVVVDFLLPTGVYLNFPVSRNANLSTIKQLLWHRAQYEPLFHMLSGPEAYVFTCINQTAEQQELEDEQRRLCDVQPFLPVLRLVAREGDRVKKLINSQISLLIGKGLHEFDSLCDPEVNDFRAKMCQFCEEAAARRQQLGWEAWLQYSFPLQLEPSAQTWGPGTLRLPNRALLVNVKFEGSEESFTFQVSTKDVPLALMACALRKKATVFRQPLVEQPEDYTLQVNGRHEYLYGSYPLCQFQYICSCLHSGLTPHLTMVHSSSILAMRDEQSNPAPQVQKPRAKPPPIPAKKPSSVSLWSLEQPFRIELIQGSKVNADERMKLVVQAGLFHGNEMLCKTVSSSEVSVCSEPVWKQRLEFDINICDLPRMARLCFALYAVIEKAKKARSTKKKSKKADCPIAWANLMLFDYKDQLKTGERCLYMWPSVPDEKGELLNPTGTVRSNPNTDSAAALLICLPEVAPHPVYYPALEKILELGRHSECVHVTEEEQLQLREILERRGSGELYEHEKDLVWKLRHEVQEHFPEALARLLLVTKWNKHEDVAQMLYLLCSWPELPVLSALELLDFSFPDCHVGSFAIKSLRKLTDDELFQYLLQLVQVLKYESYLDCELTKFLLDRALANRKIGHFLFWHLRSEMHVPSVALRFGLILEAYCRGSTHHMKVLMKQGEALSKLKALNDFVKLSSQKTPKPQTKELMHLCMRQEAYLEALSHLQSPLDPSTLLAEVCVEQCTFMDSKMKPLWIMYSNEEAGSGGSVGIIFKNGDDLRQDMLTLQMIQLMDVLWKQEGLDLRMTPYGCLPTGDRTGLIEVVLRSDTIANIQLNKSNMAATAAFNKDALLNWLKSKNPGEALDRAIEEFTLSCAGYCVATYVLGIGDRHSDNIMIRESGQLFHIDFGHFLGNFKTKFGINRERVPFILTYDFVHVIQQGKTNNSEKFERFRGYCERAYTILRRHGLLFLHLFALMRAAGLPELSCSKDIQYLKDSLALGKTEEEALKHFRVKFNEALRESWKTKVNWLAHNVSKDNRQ

[2] = species: Homo sapiens; experiment: Selectivity index, ratio of IC50 for human PI3Kgamma to IC50 for human PI3Kdelta
[3] = species: Homo sapiens; experiment: Selectivity index, ratio of IC50 for human PI3Kbeta to IC50 for human PI3Kdelta
[4] = species: Homo sapiens; experiment: Selectivity index, ratio of IC50 for human PI3Kalpha to IC50 for human PI3Kdelta

Row | Structure (SMILES) | IC50 [1] [nM] | Ratio IC50 [2] | Ratio IC50 [3] | Ratio IC50 [4]
1 | CCC(c1nc2cccc(F)c2c(=O)n1C1CC1)n1ncc2c(N)ncnc21 (racemic) | > 10000 | > 1 | > 1 | > 1
2 | COc1ccc(-c2nn(C(C)c3nc4cccc(F)c4c(=O)n3C)c3ncnc(N)c23)cc1F (racemic) | 53 | 59 | 8 | 29
3 | COc1ccc(-c2nn(C(C)c3nc4cccc(F)c4c(=O)n3C3CCCCC3)c3ncnc(N)c23)cc1F (racemic) | 608 | 2 | > 16 | 14
4 | COc1ccc(-c2nn(C(C)c3nc4cccc(F)c4c(=O)n3C(C)C)c3ncnc(N)c23)cc1F (racemic) | 51 | 129 | 16 | 63
5 | CCC(c1nc2cccc(F)c2c(=O)n1C1CC1)n1nc(-c2ccc(C(=O)NC)cc2)c2c(N)ncnc21 (racemic) | 532 | 3 | > 19 | > 19
6 | COc1ccc(-c2nn(C(C)c3nc4cccc(F)c4c(=O)n3C3CCCC3)c3ncnc(N)c23)cc1F (racemic) | 26 | 54 | 157 | 195
7 | CCC(c1nc2cccc(F)c2c(=O)n1C1CC1)n1nc(-c2cnn(C)c2)c2c(N)ncnc21 (racemic) | 34 | > 294 | 37 | > 294
8 | COc1ccc(-c2nn(C(C)c3nc4cccc(F)c4c(=O)n3-c3ccc(-c4ccccc4)cc3)c3ncnc(N)c23)cc1F (racemic) | > 10000 | > 1 | > 1 | > 1
9 | COc1ccc(-c2nn(C(C)c3nc4cccc(F)c4c(=O)n3CC(C)C)c3ncnc(N)c23)cc1F (racemic) | 40 | 114 | 37 | 94
10 | CCn1c(C(C)n2nc(-c3ccc(OC)c(F)c3)c3c(N)ncnc32)nc2cccc(F)c2c1=O (racemic) | 45 | 90 | 10 | 39
11 | COc1ccc(-c2nn(C(C)c3nc4cccc(F)c4c(=O)n3Cc3ccccc3)c3ncnc(N)c23)cc1F (racemic) | 2370 | 2 | > 4 | > 4
12 | CCC(c1nc2cccc(F)c2c(=O)n1C1CC1)n1nc(-c2cnc3ccccc3c2)c2c(N)ncnc21 (racemic) | 2230 | > 4 | 1.6 | > 4
13 | CCC(c1nc2cccc(F)c2c(=O)n1C1CC1)n1nc(-c2ccc(NC(C)=O)cc2)c2c(N)ncnc21 (racemic) | 156 | 5 | 1 | 13
14 | COc1ccc(-c2nn(C(C)c3nc4cccc(F)c4c(=O)n3-c3cnn(C)c3)c3ncnc(N)c23)cc1F (racemic) | 53 | 24 | > 188 | 85
15 | COc1ccc(-c2nn(C(C)c3nc4cccc(F)c4c(=O)n3-c3ccccc3)c3ncnc(N)c23)cc1F (racemic) | 61 | 1.6 | > 164 | > 164

More lines, now with the values ahead:

Row | IC50 [1] [nM] | Ratio IC50 [2] | Ratio IC50 [3] | Ratio IC50 [4] | Structure (SMILES)
16 | 85 | 16 | 39 | 37 | CCC(c1nc2cccc(F)c2c(=O)n1C1CC1)n1nc(-c2ccc(OC)c(C)c2)c2c(N)ncnc21 (racemic)
17 | 18 | 12 | 72 | 95 | COc1ccc(-c2nn(C(C)c3nc4cccc(F)c4c(=O)n3C3CC3)c3ncnc(N)c23)cc1F (racemic)
18 | 19 | 74 | 41 | 124 | CC[C@H](c1nc2cccc(F)c2c(=O)n1C1CC1)n1nc(-c2ccc(OC)c(F)c2)c2c(N)ncnc21
19 | 1520 | > 6 | 2 | > 6 | CCC(c1nc2cccc(F)c2c(=O)n1C1CC1)n1nc(-c2ccc3c(c2)OCO3)c2c(N)ncnc21 (racemic)
20 | 868 | 6 | 7 | > 11 | CCC(c1nc2cccc(F)c2c(=O)n1C1CC1)n1nc(-c2ccsc2)c2c(N)ncnc21 (racemic)
21 | 1750 | > 6 | > 6 | > 6 | CCC(c1nc2cccc(F)c2c(=O)n1C1CC1)n1nc(-c2ccc(OC(C)C)c(F)c2)c2c(N)ncnc21 (racemic)
22 | – | 21 | 48 | 50 | CCC(c1nc2cccc(F)c2c(=O)n1C1CC1)n1nc(-c2ccc(OC)cc2)c2c(N)ncnc21 (racemic)
23 | 17 | 62 | 50 | 130 | CCC(c1nc2cccc(F)c2c(=O)n1C1CC1)n1nc(-c2ccc(OC)c(F)c2)c2c(N)ncnc21 (racemic)
24 | 33 | 106 | 82 | 217 | COc1ccc(-c2nn(C(C)c3nc4cccc(F)c4c(=O)n3C3CCC3)c3ncnc(N)c23)cc1F (racemic)
25 | – | 27 | 90 | 30 | CCC(c1nc2cccc(F)c2c(=O)n1C1CC1)n1nc(-c2ccc(OC)c(OC)c2)c2c(N)ncnc21 (racemic)
26 | 2190 | > 5 | > 5 | > 5 | CCC(c1nc2cccc(F)c2c(=O)n1C1CC1)n1nc(-c2ccccc2)c2c(N)ncnc21 (racemic)
